In the assay the target is Human serum albumin (HSA) (Homo sapiens, UniProt P02768). Briefly: fluorescence quenching titration. Type of assay: binding.
Chain of Human serum albumin (HSA) (P02768 25-609): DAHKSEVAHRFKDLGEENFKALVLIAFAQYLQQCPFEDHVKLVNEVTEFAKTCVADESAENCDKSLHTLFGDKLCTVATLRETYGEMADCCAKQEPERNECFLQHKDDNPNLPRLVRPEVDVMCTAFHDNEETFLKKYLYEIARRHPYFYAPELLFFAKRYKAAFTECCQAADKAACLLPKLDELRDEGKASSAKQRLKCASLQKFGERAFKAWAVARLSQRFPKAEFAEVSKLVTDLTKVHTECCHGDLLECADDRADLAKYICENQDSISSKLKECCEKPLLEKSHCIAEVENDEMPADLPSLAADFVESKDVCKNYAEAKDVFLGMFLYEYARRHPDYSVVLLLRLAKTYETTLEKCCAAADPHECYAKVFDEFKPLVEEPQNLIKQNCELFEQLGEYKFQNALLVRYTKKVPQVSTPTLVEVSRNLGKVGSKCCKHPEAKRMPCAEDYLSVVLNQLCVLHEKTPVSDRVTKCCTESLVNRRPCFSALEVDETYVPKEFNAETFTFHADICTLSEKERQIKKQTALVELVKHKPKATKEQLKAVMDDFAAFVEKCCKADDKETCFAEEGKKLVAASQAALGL

Broadly, the Kd is the equilibrium constant for the complex coming apart. Higher therefore signals lower affinity. In the case of `CCCCCCCCc1ccc(CCC(N)(CO)CO)cc1` [Fingolimod], the Kd is 235 µM.

(Values after publication PMC10182447 (BioImpacts : BI, 2022).)
